Results taken from ChEMBL document CHEMBL1201862, “PubChem BioAssay data set” (2004).
The source made the active and inactive calls.

Assays:
Cannabinoid receptor 1 = Cannabinoid receptor 1 (Homo sapiens, UniProt P21554); experiment: SAR analysis of antagonists of the Cannabinoid Receptor 1 using an Image-Based Assay. [Related pubchem assays (depositor defined):AID1961, AID1965]; format: functional
[1] = target: T1, G-protein coupled receptor 55 (Homo sapiens, UniProt Q9Y2T6); experiment: GPR55 agonists via beta-arrestin recruitment, primary screen, imaging, U2OS cells, beta-arrestin-GFP redistribution (AID 1961); format: functional
T1 sequence (Q9Y2T6 whole entry): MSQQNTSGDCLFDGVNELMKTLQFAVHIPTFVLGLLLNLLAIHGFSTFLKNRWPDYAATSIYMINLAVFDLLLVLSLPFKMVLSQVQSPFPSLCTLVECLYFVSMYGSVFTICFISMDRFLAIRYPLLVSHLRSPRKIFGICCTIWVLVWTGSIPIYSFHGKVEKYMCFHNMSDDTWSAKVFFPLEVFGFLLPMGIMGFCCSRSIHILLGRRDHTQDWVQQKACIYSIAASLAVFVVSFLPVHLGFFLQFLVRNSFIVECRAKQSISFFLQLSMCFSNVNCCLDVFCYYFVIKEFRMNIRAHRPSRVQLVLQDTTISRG

[2] = target: T1, G-protein coupled receptor 55; experiment: SAR analysis of selective Agonists of GPR55 using an Image-Based Assay. [Related pubchem assays (depositor defined):AID1961, AID1965]; format: functional
Cannabinoid receptor 2 [3] = target: T2, Cannabinoid receptor 2 (Homo sapiens, UniProt P34972); experiment: SAR analysis of agonists of the Cannabinoid Receptor 2 using an Image-Based Assay - Set 2. [Related pubchem assays (depositor defined):AID1961, AID1965]; format: functional
T2 sequence (P34972 whole entry): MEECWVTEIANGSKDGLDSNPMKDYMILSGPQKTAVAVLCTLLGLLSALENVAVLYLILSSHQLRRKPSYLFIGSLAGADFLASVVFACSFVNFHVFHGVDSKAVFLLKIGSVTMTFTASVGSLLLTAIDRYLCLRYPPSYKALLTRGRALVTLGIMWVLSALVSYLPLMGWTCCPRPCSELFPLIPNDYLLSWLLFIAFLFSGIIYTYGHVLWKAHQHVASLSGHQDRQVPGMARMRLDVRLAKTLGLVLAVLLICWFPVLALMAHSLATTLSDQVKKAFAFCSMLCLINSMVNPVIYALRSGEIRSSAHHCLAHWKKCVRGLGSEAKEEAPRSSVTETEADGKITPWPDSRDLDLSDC

Cannabinoid receptor 2 [4] = target: T2, Cannabinoid receptor 2; experiment: SAR analysis of antagonists of the Cannabinoid Receptor 2 using an Image-Based Assay - Set 2. [Related pubchem assays (depositor defined):AID1961, AID1965]; format: functional
[5] = MC4R antagonists, dose response, counter-screen for LGR2 antagonist project, cell-based, plate reader, cherry pick (AID 743444); format: functional;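 further: transfected HEK 293 cells stimulated with alpha-MSH peptide; potency of inhibitors of the alpha-MSH evoked signal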
[6] = target: T3, Replicative DNA helicase DnaB (Mycobacterium tuberculosis, UniProt P9WMR3); experiment: DnaB intein splicing inhibitors, dose response, biochemical, cell-free fluorescence (AID 449749); format: functional
T3 sequence (P9WMR3 whole entry): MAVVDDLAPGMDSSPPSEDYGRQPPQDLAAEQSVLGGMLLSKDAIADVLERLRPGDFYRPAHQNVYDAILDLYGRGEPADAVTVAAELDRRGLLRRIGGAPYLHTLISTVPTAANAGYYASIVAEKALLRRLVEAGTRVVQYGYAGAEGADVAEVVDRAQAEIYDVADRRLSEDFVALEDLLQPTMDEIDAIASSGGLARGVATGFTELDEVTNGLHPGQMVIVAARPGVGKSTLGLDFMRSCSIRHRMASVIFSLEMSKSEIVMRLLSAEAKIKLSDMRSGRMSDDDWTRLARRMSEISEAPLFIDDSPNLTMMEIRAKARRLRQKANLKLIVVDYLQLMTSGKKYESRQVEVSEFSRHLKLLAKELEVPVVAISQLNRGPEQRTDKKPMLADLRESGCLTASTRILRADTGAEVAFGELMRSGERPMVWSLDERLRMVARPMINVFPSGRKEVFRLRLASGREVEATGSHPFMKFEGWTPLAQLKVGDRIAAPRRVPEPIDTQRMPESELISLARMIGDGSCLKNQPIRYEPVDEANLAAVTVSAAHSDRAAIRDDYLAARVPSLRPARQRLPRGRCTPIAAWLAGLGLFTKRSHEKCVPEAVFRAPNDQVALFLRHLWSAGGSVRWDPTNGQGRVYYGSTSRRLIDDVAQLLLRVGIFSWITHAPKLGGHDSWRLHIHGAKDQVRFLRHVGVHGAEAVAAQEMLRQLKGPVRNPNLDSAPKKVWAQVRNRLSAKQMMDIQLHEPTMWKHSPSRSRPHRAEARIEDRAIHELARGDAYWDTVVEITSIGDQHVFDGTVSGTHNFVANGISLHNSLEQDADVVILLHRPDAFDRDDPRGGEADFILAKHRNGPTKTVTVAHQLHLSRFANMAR

[7] = (§1) Late stage assay provider results from the probe development effort to identify inhibitors of Protein Phosphatase Methylesterase 1 (PME-1): luminescence-based […] dose response assay to determine cytotoxicity of inhibitor compounds. [Related pubchem assays (depositor defined):AID2130, AID2143, AID2171, AID2174, AID2177, AID2232, AID2233, AID2291, AID2363, AID2365, AID2366, AID2368, AID2369, AID2371, AID463124, AID463130, AID463131, AID463132, AID463146, AID463149] Panel member name: Serum-free Media; format: toxicity
[8] = HEK293 cell cytotoxicity, dose response, cytotoxicity control, plate reader, cherry-picked samples (AID 743446); format: functional, cell-based
[9] = as §1, with “Fetal Calf Serum” for “Serum-free Media”; format: toxicity
[10] = A549 cell cytotoxicity, dose response, cytotoxicity control, plate reader, cherry-pick, antagonist series (AID 743412); format: functional, cell-based
[11] = HepG2 cell cytotoxicity, dose response, cytotoxicity control, plate reader, cherry-pick, antagonist series (AID 743416); format: functional, cell-based
Protein RecA = target: T4, Protein RecA (Mycobacterium tuberculosis, UniProt P9WHJ3); experiment: Fluorescence Cell-Free Homogeneous Dose Retest to Identify Inhibitors of RecA-Intein Splicing Activity. [Related pubchem assays (depositor defined):AID2097, AID2223, AID489010, AID492950]; format: functional
T4 sequence (P9WHJ3 whole entry): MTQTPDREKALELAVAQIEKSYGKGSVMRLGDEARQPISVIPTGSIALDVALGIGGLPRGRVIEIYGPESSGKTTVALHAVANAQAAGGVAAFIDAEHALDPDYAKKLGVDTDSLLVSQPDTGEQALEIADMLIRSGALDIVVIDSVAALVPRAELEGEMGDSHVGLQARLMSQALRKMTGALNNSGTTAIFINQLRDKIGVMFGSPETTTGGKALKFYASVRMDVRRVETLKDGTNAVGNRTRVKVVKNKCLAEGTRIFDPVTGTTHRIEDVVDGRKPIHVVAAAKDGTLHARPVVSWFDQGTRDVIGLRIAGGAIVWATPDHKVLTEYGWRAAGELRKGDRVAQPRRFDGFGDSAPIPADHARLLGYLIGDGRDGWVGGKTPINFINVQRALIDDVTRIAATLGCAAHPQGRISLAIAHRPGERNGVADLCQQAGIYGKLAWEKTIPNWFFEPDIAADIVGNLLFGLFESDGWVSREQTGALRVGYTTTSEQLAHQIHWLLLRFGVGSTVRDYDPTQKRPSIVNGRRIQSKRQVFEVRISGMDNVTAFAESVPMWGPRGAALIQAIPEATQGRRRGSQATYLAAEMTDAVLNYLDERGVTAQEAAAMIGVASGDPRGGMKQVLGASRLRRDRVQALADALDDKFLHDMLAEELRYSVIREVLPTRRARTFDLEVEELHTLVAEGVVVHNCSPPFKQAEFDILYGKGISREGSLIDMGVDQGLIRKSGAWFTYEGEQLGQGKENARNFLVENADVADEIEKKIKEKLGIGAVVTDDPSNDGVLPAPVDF

[12] = LGR2 antagonists, dose response, cell-based, HEK293, CRE-luciferase reporter, cherry pick, set 2 (AID 743343); format: functional;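 further: transfected cells were stimulated with diluted bursicon conditioned medium after compound addition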
[13] = Luminescence Cell-Based Dose Retest to Confirm Inhibitors of Cancer Stem Cells. [Related pubchem assays (depositor defined):AID2717, AID2721]; format: functional; conditions: Homo sapiens
[14] = target: Voltage-dependent T-type calcium channel subunit alpha-1H (Homo sapiens, UniProt O95180); experiment: Cav3.2 T-type channel blockers, cell-based, SynthLib3 library, HEK293 Cav3.2, fluorescence (AID 493041); format: functional
Bcl-2-related protein A1 [15] = target: T5, Bcl-2-related protein A1 (Mus musculus, UniProt Q07440); experiment: Bfl-1 inhibitors blocking BH3 peptide binding, confirmation, biochemical, TR-FRET, mouse Bfl-1 (AID 621);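 further: TR-FRET binding of GST-Bfl-1 to FITC-labelled Bid peptide via terbium antibody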
T5 sequence (Q07440 whole entry): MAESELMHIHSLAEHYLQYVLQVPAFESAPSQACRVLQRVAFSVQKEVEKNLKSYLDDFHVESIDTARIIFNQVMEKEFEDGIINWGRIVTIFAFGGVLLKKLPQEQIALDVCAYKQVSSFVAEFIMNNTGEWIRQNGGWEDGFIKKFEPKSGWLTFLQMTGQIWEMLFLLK

[16] = target: Glyceraldehyde-3-phosphate dehydrogenase (Homo sapiens, UniProt P04406)
Sequence of Glyceraldehyde-3-phosphate dehydrogenase (P04406 whole entry, the tested form may be a part): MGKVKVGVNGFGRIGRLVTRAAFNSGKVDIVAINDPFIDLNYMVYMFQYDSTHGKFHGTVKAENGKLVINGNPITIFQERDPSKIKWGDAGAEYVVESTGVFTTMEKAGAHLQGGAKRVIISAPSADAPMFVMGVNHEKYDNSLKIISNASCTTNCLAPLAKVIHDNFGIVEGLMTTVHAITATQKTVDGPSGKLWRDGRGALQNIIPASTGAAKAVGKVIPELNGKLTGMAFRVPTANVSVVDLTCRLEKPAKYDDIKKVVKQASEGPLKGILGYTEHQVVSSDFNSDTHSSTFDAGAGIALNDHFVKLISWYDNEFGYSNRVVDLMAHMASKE

[17] = target: Nucleotide-binding oligomerization domain-containing protein 2 (Homo sapiens, UniProt Q9HC29); experiment: NOD2 signaling inhibitors, analog potency, SAR follow-up, cell-based, set 3 (AID 2799); format: functional
Sequence of Nucleotide-binding oligomerization domain-containing protein 2 (Q9HC29 whole entry, the tested form may be a part): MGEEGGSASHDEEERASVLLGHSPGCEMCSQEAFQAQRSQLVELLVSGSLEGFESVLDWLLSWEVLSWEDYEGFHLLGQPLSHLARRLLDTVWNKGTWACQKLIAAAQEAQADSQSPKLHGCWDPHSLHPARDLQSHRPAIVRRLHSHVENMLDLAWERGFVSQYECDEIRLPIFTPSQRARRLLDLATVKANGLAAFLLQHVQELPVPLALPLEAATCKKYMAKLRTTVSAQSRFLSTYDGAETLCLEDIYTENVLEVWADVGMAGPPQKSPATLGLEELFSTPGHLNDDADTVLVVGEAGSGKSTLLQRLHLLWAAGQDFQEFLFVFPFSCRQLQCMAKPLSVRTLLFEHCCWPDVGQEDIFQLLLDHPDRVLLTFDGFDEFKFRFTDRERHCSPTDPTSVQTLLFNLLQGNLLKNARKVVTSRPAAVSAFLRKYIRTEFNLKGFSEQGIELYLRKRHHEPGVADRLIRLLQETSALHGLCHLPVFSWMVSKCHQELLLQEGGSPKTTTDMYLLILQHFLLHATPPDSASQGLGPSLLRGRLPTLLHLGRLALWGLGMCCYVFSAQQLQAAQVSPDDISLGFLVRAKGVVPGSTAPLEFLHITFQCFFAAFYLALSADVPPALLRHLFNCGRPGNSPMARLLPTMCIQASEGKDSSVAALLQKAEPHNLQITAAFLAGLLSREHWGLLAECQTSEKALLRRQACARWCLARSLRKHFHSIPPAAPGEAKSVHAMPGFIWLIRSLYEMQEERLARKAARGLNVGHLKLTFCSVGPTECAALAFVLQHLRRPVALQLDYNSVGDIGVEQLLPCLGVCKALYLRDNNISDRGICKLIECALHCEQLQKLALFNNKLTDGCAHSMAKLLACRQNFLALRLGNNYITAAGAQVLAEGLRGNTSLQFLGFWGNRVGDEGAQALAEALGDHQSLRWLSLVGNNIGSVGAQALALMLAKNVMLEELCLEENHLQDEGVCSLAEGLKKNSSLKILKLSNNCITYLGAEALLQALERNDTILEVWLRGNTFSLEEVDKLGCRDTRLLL

HEK293 = experiment: SAR analysis of compounds that are cytotoxic to HEK293 - Set 3. [Related pubchem assays (depositor defined):AID1575, AID1578, AID1848, AID1849, AID2001, AID2333, AID2334, AID2335, AID2337, AID2469]; format: functional, cell-based; conditions: Homo sapiens
[18] = target: Nucleotide-binding oligomerization domain-containing protein 1 (Homo sapiens, UniProt Q9Y239); experiment: SAR analysis of compounds that inhibit NOD1 - Set 3. [Related pubchem assays (depositor defined):AID1566, AID1575, AID1578, AID1849, AID1852, AID2333, AID2335, AID2466]; format: functional
Sequence of Nucleotide-binding oligomerization domain-containing protein 1 (Q9Y239 whole entry, the tested form may be a part): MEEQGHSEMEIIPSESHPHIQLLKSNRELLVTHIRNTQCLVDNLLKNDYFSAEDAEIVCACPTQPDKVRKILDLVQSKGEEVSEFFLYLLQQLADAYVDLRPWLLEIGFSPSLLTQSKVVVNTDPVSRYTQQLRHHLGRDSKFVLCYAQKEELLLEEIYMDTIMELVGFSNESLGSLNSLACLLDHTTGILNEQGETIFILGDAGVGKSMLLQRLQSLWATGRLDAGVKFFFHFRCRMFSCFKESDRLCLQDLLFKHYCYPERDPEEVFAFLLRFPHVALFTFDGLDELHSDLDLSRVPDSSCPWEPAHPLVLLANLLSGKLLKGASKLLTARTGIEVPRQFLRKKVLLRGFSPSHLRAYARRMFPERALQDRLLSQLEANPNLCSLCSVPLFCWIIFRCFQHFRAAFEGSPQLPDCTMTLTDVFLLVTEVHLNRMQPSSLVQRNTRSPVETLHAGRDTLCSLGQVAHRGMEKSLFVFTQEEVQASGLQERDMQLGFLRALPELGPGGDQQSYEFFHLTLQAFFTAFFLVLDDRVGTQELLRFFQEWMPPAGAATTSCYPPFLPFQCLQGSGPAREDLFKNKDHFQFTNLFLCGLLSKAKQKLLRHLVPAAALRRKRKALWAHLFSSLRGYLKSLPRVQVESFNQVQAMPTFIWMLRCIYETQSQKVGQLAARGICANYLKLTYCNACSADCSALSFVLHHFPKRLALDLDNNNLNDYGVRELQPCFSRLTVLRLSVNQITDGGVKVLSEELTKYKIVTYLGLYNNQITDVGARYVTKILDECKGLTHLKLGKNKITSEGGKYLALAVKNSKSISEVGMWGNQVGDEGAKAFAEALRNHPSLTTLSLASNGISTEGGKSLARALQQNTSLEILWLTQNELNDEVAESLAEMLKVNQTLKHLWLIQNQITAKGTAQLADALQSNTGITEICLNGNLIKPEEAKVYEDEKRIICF

Tumor necrosis factor = Tumor necrosis factor (Homo sapiens, UniProt P01375); experiment: TNFa-triggered NF-kB activation inhibitors, SAR follow-up, cell-based, set 3 (AID 2801); format: functional
Sequence of Tumor necrosis factor (P01375 whole entry): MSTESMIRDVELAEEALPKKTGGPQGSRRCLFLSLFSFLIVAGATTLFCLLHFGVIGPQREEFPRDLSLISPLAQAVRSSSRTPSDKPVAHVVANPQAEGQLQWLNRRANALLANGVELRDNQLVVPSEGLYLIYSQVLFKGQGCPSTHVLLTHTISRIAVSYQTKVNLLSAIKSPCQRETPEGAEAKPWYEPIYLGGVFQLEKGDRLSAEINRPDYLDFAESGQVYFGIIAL

Bcl-2-related protein A1 [19] = target: T5, Bcl-2-related protein A1; experiment: Bfl-1 binding inhibitors, SAR follow-up, biochemical, fluorescence polarization (AID 1070)
Vero = experiment: host cell cytotoxicity of antiviral hits, dose response, cytotoxicity control for West Nile virus antiviral project, secondary assay (AID 1650); format: functional; conditions: Chlorocebus sabaeus
[20] = target: T1, G-protein coupled receptor 55; experiment: GPR55 antagonists, SAR follow-up, counter-screen for GPR35 antagonist project, imaging, image-based (AID 2397); format: functional

Sequence of Cannabinoid receptor 1 (P21554 whole entry): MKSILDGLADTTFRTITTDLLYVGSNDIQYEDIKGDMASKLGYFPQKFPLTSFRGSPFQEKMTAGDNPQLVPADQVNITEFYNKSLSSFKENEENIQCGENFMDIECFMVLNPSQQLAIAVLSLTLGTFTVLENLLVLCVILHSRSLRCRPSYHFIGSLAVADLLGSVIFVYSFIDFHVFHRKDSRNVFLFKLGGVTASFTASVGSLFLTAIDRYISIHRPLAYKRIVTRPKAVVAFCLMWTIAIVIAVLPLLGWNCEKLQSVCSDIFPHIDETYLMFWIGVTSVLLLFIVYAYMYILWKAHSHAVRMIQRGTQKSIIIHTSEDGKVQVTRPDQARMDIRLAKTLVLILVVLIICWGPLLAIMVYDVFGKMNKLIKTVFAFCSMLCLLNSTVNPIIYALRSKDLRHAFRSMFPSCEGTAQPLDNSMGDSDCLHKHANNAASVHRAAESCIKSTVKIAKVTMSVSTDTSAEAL

With CC(Sc1nc2cc(Cl)ccc2s1)C(=O)Nc1cccc(S(=O)(=O)N2CCOCC2)c1 (configuration not stated) the IC50 (Cannabinoid receptor 1) was > 32 µM (inactive), the EC50 [1] was 0.961 µM (active) and the EC50 [2] was 0.761 µM (active). For the same molecule, the EC50 (Cannabinoid receptor 2 [3]) was > 32 µM (inactive) and the IC50 (Cannabinoid receptor 2 [4]) was > 32 µM (inactive).
For CCOC(=O)N1C(=O)[C@@](c2ccc(Cl)cc2)(C(C)C)N1C(=O)OCC, the AC50 [5] was 26.6 µM (active), the AC50 [6] was 7.28 µM (active) and the CC50 [7] was > 10 µM (inactive). The AC50 [8] was 49.1 µM (active), the CC50 [9] was > 10 µM (inactive) and the AC50 [10] was 22.4 µM (active). For the same molecule, the AC50 [11] was 40.9 µM (active), the EC50 (Protein RecA) was 16.2 µM (active) and the AC50 [12] was 17.3 µM (active). The AC50 [13] was 3.99 µM (active).
With CC(C)CCc1nnc(NC(=O)COc2ccc(F)cc2Cl)o1 the EC50 [14] was 10 µM (active).
For COc1ccc(-c2cc(N)n(S(=O)(=O)c3ccc(F)cc3)n2)cc1OC, the IC50 (Bcl-2-related protein A1 [15]) was > 100 µM (not active), the IC50 [16] was > 100 µM (not active) and the IC50 [17] was > 20 µM (inactive). For the same molecule, the IC50 (HEK293) was > 20 µM (inactive), the IC50 [18] was > 20 µM (inactive) and the IC50 (Tumor necrosis factor) was > 20 µM (inactive). For the same molecule, the IC50 (Bcl-2-related protein A1 [19]) was > 100 µM (not active).
With O=C(CCCN1C(=O)/C(=C/c2ccccc2)SC1=S)Nc1ccc(O)cc1 the AC50 [6] was 12 µM (active), the CC50 (Vero) was 60 µM (active) and the EC50 (Protein RecA) was > 380 µM (inactive). For the same molecule, the IC50 [20] was > 32 µM (inactive).
